Assay results: PMC10564737, “Structure-based design of a phosphotyrosine-masked covalent ligand targeting the E3 ligase SOCS2” (Nature Communications, 2023)
Where “and” joins values, the source holds several entries; their conditions need not be identical. Equal entries are not always repeated.

Molecular target: T1, SBC2 (Homo sapiens, UniProt O14508)
T1 construct: SOCS2 (amino acids 32–198); His6 (N, cleaved yes); made in house; host or cells: E. coli BL21(DE3)
Test: Covalent fluorescence polarization (FP) probe displacement assay
Assay type: binding
Source text: With the specific covalent modification of Cys111 established, we decided to fully characterize MN551 as a covalent SOCS2 inhibitor. […] (Fig. 2g, h, Supplementary Fig. 9). Due to the covalent nature of the competing inhibitor, a time-dependent reduction in the fraction of protein-bound probe is observed. […] This value illustrates reasonable specificity for a covalent inhibitor, with nonetheless scope for future optimization. In addition to characterizing the kinetic covalency parameters, we have also assessed the stability of the MN551 by monitoring its reactivity (half-life >70 min) with reduced glutathione (GSH) (Supplementary Fig. 10)[35].
To monitor the SBC2-ligand binding kinetics we designed a fluorescein-labeled small-molecule probe - compound 26. The fluorescence polarization (anisotropy) of a threefold serial dilution of 50 µM SBC2 in 10 nM of the probe in 100 mM HEPES pH 7.5, 50 mM NaCl, 0.5 mM TCEP, 2% DMSO was measured to determine the KL (Supplementary Fig. 9A) (BMG Labtech PHERAstar – firmware v1.33). Protein titration and the curves were fitted using GraphPad Prism 9, using one-site fitting models to determine the probe binding constant, KL. Samples were run in triplicate in 384 well plates, using a total volume per well of 16 μL. The bound fraction of the probe is measure using the equation:1 Fb=Af−A/Af−Ab Where,
A time-dependent reduction in probe anisotropy were measured for a 2-fold serial dilution of […] compound MN551 in 10 nM probe +300 μM SBC2. To determine the initial reversible binding affinity, the initial bound fraction of the probe at time = 0, Fbo (the y-intercept in Fb v/s Time plot, Supplementary Fig. 9B) was plotted against MN551 concentration, and the obtained IC50 is then converted to Ki (Supplementary Fig. 9C)[17]. The slope from Fb versus time graph when divided by Fbo gives rate of covalency, kobs. A plot of kobs v/s MN551 concentration using Michaelis–Menten model of GraphPad Prism 9, provides the parameters kinact (maximum potential rate of inactivation) and KI (concentration of MN551 at which kobs = kinact/2) (Supplementary Fig. 9D, E).
The observed first-order rate constant, kobs is related to KI and kinact by the equation:2 kobs=kinactI/KI+I
At [I]«[KI] the above equation is converted to3 […]
The slope from the plot of kobs against concentration of MN551 gives us the covalent efficiency parameter kinact/KI (Supp Fig. 9F)[30],[33].

[1] = MN551 260.308 nM, Cycle 12 (55 min)
[2] = MN551 260.308 nM, Cycle 19 (90 min), n=1
[3] = MN551 364.432 nM, Cycle 6 (25 min)
[4] = MN551 364.432 nM, Cycle 12 (55 min)
[5] = MN551 364.432 nM, Cycle 19 (90 min), n=1
[6] = MN551 510.204 nM, Cycle 6 (25 min)
[7] = MN551 510.204 nM, Cycle 12 (55 min)
[8] = MN551 510.204 nM, Cycle 19 (90 min), n=1
[9] = MN551 714.286 nM, Cycle 6 (25 min)
[10] = MN551 714.286 nM, Cycle 12 (55 min)
[11] = MN551 714.286 nM, Cycle 19 (90 min), n=1
[12] = MN551 781.25 nM, Cycle 6 (25 min)
[13] = MN551 1000 nM, Cycle 6 (25 min)
[14] = MN551 1000 nM, Cycle 12 (55 min)
[15] = MN551 1000 nM, Cycle 19 (90 min), n=1

T1 sequence (O14508 32-198): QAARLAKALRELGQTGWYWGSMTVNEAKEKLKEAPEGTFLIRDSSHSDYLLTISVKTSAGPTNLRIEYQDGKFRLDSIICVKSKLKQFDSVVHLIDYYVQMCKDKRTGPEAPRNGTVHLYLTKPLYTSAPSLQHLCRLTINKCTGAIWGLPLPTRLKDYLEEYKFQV
T1 sequence (Q15370 1-104 partner limits assumed): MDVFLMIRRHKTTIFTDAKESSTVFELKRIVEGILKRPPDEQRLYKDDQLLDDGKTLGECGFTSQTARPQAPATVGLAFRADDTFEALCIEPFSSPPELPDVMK
T1 sequence (Q15369 17-112 partner limits assumed): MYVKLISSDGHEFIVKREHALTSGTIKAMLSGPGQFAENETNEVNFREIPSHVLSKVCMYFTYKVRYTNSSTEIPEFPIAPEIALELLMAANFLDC

O=C(CCl)Nc1cccc(CNC(=O)[C@H](Cc2ccc(OP(=O)(O)O)cc2)NC(=O)Cc2ccc(F)cc2)c1 [MN551]
Fb (MN551 260.308 nM, Cycle 6 (25 min)): 0.9065 and 0.9342 and 0.9573
Anisotropy [1]: 262.5 and 259.9 and 257.4
Fb [1]: 0.8574 and 0.8591 and 0.8311
Anisotropy data 485,520,520 [2]: 254.9 and 255 and 252.4
Anisotropy normalised (0 nM MN551 = 1, free probe = 0) [2]: 0.8373 and 0.852 and 0.8299
Anisotropy normalised (0 nM MN551 = 1, free probe = 0) (MN551 260.308 nM, Cycle 20 (95 min), n=1): 0.8182 and 0.7955 and 0.8068
Anisotropy based on Raw Data (485) (MN551 364.432 nM, Cycle 7 (30 min)): 266.3 and 261.1 and 263
Normalised anisotropy (0 nM MN551 = 1, free probe = 0) (MN551 364.432 nM, Cycle 13 (60 min), n=1): 0.8082 and 0.788 and 0.7925
Normalised anisotropy (0 nM MN551 = 1, free probe = 0) (MN551 364.432 nM, Cycle 14 (65 min), n=1): 0.8132 and 0.8023 and 0.7716
Normalised anisotropy (0 nM MN551 = 1, free probe = 0) (MN551 364.432 nM, Cycle 15 (70 min), n=1): 0.8109 and 0.8027 and 0.7817
Fb, fraction bound (MN551 364.432 nM, Cycle 3 (10 min)): 0.8953 and 0.9033 and 0.8725
Anisotropy data 485,520,520 [3]: 261.2 and 252.2 and 253.6
Fb [3]: 0.8702 and 0.8783 and 0.9647
Anisotropy [4]: 258 and 255.4 and 255.3
Fb [4]: 0.8155 and 0.8159 and 0.8109
Anisotropy data 485,520,520 [5]: 251.5 and 248.8 and 245.6
Anisotropy normalised (0 nM MN551 = 1, free probe = 0) [5]: 0.8046 and 0.79 and 0.7638
Anisotropy normalised (0 nM MN551 = 1, free probe = 0) (MN551 364.432 nM, Cycle 20 (95 min), n=1): 0.7592 and 0.7548 and 0.7585
Anisotropy based on Raw Data (485) (MN551 390.625 nM, Cycle 7 (30 min)): 269.8 and 271.4 and 267.4
Fb, fraction bound (MN551 390.625 nM, Cycle 2 (5 min)): 0.9917 and 0.9704 and 0.9496
Fb, fraction bound (MN551 390.625 nM, Cycle 3 (10 min)): 0.9862 and 0.9672 and 0.9437
Anisotropy (MN551 390.625 nM, Cycle 12 (55 min)): 270.6 and 267.1 and 265.1
Anisotropy based on Raw Data (485) (MN551 510.204 nM, Cycle 7 (30 min)): 261.7 and 259.3 and 261
Anisotropy based on Raw Data (485) (MN551 510.204 nM, Cycle 8 (35 min)): 261.5 and 258.9 and 258.8
Normalised anisotropy (0 nM MN551 = 1, free probe = 0) (MN551 510.204 nM, Cycle 13 (60 min), n=1): 0.7484 and 0.7226 and 0.7442
Normalised anisotropy (0 nM MN551 = 1, free probe = 0) (MN551 510.204 nM, Cycle 14 (65 min), n=1): 0.7755 and 0.7213 and 0.7092
Normalised anisotropy (0 nM MN551 = 1, free probe = 0) (MN551 510.204 nM, Cycle 15 (70 min), n=1): 0.7476 and 0.7154 and 0.7087
Fb, fraction bound (MN551 510.204 nM, Cycle 3 (10 min)): 0.8721 and 0.8651 and 0.8107
Anisotropy data 485,520,520 [6]: 257.3 and 244.3 and 249.4
Fb [6]: 0.8302 and 0.8538 and 0.9038
Anisotropy [7]: 252.2 and 248.3 and 248.9
Fb [7]: 0.7614 and 0.7478 and 0.7495
Anisotropy data 485,520,520 [8]: 243.6 and 240.1 and 238.9
Anisotropy normalised (0 nM MN551 = 1, free probe = 0) [8]: 0.7286 and 0.703 and 0.6987
Anisotropy normalised (0 nM MN551 = 1, free probe = 0) (MN551 510.204 nM, Cycle 20 (95 min), n=1): 0.6867 and 0.6831 and 0.6676
Anisotropy based on Raw Data (485) (MN551 714.286 nM, Cycle 7 (30 min)): 257.5 and 256.2 and 255.9
Anisotropy based on Raw Data (485) (MN551 714.286 nM, Cycle 8 (35 min)): 256 and 254.7 and 255.3
Normalised anisotropy (0 nM MN551 = 1, free probe = 0) (MN551 714.286 nM, Cycle 14 (65 min), n=1): 0.7189 and 0.6657 and 0.6727
Normalised anisotropy (0 nM MN551 = 1, free probe = 0) (MN551 714.286 nM, Cycle 15 (70 min), n=1): 0.6832 and 0.6708 and 0.6558
Fb, fraction bound (MN551 714.286 nM, Cycle 3 (10 min)): 0.8072 and 0.8019 and 0.7869
Anisotropy data 485,520,520 [9]: 249.8 and 245.7 and 246.8
Fb [9]: 0.8082 and 0.8312 and 0.8793
Anisotropy [10]: 245.4 and 244 and 241.6
Fb [10]: 0.698 and 0.7066 and 0.6795
Fb (MN551 714.286 nM, Cycle 13 (60 min)): 0.6773 and 0.6691 and 0.6737
Anisotropy data 485,520,520 [11]: 235.3 and 235.8 and 229.2
Anisotropy normalised (0 nM MN551 = 1, free probe = 0) [11]: 0.6487 and 0.66 and 0.6045
Anisotropy normalised (0 nM MN551 = 1, free probe = 0) (MN551 714.286 nM, Cycle 20 (95 min), n=1): 0.6238 and 0.6124 and 0.601
Anisotropy based on Raw Data (485) (MN551 781.25 nM, Cycle 7 (30 min)): 264.8 and 264.3 and 257.5
Fb, fraction bound (MN551 781.25 nM, Cycle 2 (5 min)): 0.8861 and 0.914 and 0.9072
Fb, fraction bound (MN551 781.25 nM, Cycle 3 (10 min)): 0.8842 and 0.8716 and 0.861
Anisotropy data 485,520,520 [12]: 261.7 and 267.5 and 267.1
Fb [12]: 0.8257 and 0.8639
Anisotropy (MN551 781.25 nM, Cycle 12 (55 min)): 254.6 and 253.4 and 251.5
Anisotropy based on Raw Data (485) (MN551 1000 nM, Cycle 7 (30 min)): 254.7 and 249.8 and 251.7
Anisotropy based on Raw Data (485) (MN551 1000 nM, Cycle 8 (35 min)): 251.7 and 250.9 and 246
Normalised anisotropy (0 nM MN551 = 1, free probe = 0) (MN551 1000 nM, Cycle 14 (65 min), n=1): 0.5934 and 0.6045 and 0.5749
Normalised anisotropy (0 nM MN551 = 1, free probe = 0) (MN551 1000 nM, Cycle 15 (70 min), n=1): 0.5741 and 0.5664 and 0.5538
Fb, fraction bound (MN551 1000 nM, Cycle 3 (10 min)): 0.7627 and 0.7851 and 0.7345
Anisotropy data 485,520,520 [13]: 247.9 and 241.8 and 240.6
Fb [13]: 0.7763 and 0.812
Anisotropy [14]: 234.4 and 236.4 and 233.2
Fb [14]: 0.5955 and 0.6337 and 0.5988
Fb (MN551 1000 nM, Cycle 13 (60 min)): 0.5631 and 0.5917 and 0.6014
Anisotropy data 485,520,520 [15]: 220.4 and 223.8 and 219.7
Anisotropy normalised (0 nM MN551 = 1, free probe = 0) [15]: 0.5053 and 0.54 and 0.5121
Anisotropy normalised (0 nM MN551 = 1, free probe = 0) (MN551 1000 nM, Cycle 20 (95 min), n=1): 0.4971 and 0.4767 and 0.4821
